# Laboratory results from patent US9155761B2, “Method for the treatment of cancer” (UNIVERSITY COLLEGE CORK, NATIONAL UNIVERSITY OF IRELAND, …, priority 2009, dated 2015).
# Entries after “also recorded” stand apart in the source; their conditions may differ.
# Key:
# OE21 = system: OE21
# Protocol: Morphological features of cells treated with 5-fluorouracil (5-FU)/cisplatin, without and with 3-MA, LY294002, Bafilomycin, Lithium chloride, rapamycin or HA14-I were examined by light microscopy. Morphologies of treated cells were examined 24 and 48 hours post treatment, treatment times are referred to in figure legends. Aliquots of vehicle control and drug treated cells were cytospun onto glass slides and stained with Rapi-Diff (Braidwood laboratories, UK). The extent of apoptotic and non-apoptotic cell death was determined by counting the cells in at least three fields of view per slide, with an average of ˜100 cells per field. Apoptotic cell death is characterized by the presence of two or more of the following morphological features: cell shrinkage, chromatin condensation, DNA degradation and fragmentation into ‘apoptotic bodies’, within an intact plasma membrane. Autophagic cell death was identified by clear elevation of cytoplasmic vesicles, loss of cytoplasmic material, pyknosis of the nuclear material and an intact nuclear membrane. Cytospin images are representative of at least three independent experiments.
# LLC-Luc cells = assay: FITC conjugated LC3 staining of LLC-Luc cells in vitro; type: cell-based; details: 5-FU in vitro, 24 and 48 hours
# Source text: FITC conjugated LC3 (a known marker of autophagy), forms a green punctate staining pattern in the cytoplasm when it accumulates in forming autophagosomes.
# [1] = system: active caspase-3 in OE33 cells; assay: Active caspase-3 by flow cytometry; type: cell-based, human; details: 48 hours after treatment
# Protocol: (§1) To examine control and 5-Fluorouracil treated cells for evidence of caspase activity cells were processed by trypsinization, 48 hours after treatment. […] This was detected with an anti rabbit FITC conjugated secondary antibody, and samples were analyzed by FACScan at 530 nm (FL-1). Percentages indicate the proportion of cells with active caspase-3, detected as an increase in the number of FITC (FL-1) labelled cells.
# [2] = system: active caspase-3 in OE21 cells; assay: Active caspase-3 by flow cytometry; type: cell-based, human
# Protocol: as §1
# [3] = system: active caspase-3 in KYSE450 cells; assay: Active caspase-3 by flow cytometry; type: cell-based, human; details: 48 hours after treatment, range of concentrations
# Protocol: as §1
# [4] = system: active caspase-3 in OE19 cells; assay: Active caspase-3 by flow cytometry; type: cell-based, human; details: 48 hours after treatment
# Protocol: as §1
# KYSE450 = assay: Evaluation of cell death morphology by light microscopy; type: cell-based, human
# OE19 = assay: as above; type: cell-based, human; details: 5-FU (50 μM) or cisplatin (40 μM), 48 hours
# [5] = 5-FU (50 μM) or cisplatin (40 μM), 48 hours
smiles,measurement,setting,value
"O=c1[nH]cc(F)c(=O)[nH]1 [5-FU, 5-fluorouracil]",cell death morphology,OE21; [5],predominantly apoptotic cell death morphology
same,autophagic cells as a minor population,OE21; 5-FU treated OE21 cells (FIG. 1c),7%
same,autophagy (FITC conjugated LC3 punctate staining),LLC-Luc cells,the extent of autophagy is greatly enhanced
same,active caspase-3,[1],displayed active caspase-3
same,proportion of cells with active caspase-3,"[2]; 5-FU (25 μM/50 μM), 48 hours",44%
same,active caspase-3,[2]; 48 hours after treatment,displayed active caspase-3
same,active caspase-3,[3],do not show caspase-3 activity; also recorded: fail to show any active caspase-3
same,active caspase-3,[4],do not show caspase-3 activity
same,cell death morphology,KYSE450; [5],predominantly non-apoptotic morphology
same,morphology,"KYSE450; HA14-1 (5 μM) and/or 5-FU (50 μM), 24 hours",causes autophagic phenotype
same,cell death morphology,OE19,predominantly non-apoptotic morphology
